US20120122791A1, “SUBSTRATE FOR CARTILAGE CULTIVATION USING ARTIFICIAL COLLAGEN, AND METHOD FOR CARTILAGE REGENERATION TREATMENT USING THE SUBSTRATE” (JNC CORPORATION, priority 2009, published 2012)

Assays:
aggrecan mRNA = experiment: Aggrecan mRNA amount in cartilage cells by addition of artificial collagen aqueous solution (real-time PCR); assay type: cell-based, New Zealand white rabbits; details: relative to 0% defined as 1
Description: (§1) Shoulder joints and knee joints were extirpated from 5 New Zealand white rabbits (male, 8- to 9 week-old), and only a cartilage layer was excised and sampled with a surgical knife. After washing with a sterilized PBS solution, pronase was added to 25 ml of Dulbecco's Modified Eagle's medium+gentacin (25 μg/ml) at a concentration of 0.4% (W/V), and incubation was performed at 37° C. for 2 hours. The solution was supplemented with collagenase at a concentration of 0.025% (W/V), and incubated at 37° C. overnight. The resulting solution was washed to collect cartilage cells. After that, the cartilage cells were seeded into a dish with a diameter of 90 mm at 1 to 2×10^6 cells/dish, and a medium exchange was performed once every 3 days. At the time point where the cells became confluent, subcultivation was performed only once. The following experiments were performed by using cells which had been subcultivated once. Further, the composition of a cultivation medium is as described below.
(§2) Cartilage cells in a semi-confluent state were detached from a dish by a tripsin-EDTA solution treatment, supplemented with a cultivation medium, and then washed by centrifugation. After that, the cells were seeded into a 12-well plate at 3×10^5 cells/well, and cultivation was started under conditions of 37° C. and 5% CO2.
(§3) At 24 hours after the start of the cultivation, a 1% (W/V) artificial collagen aqueous solution was diluted with a cultivation medium to prepare 0.10, 0.20, 0.30, 0.40, and 0.50% (W/V) artificial collagen aqueous solutions. Then, cultivation was performed for 4, 7, 14, and 21 days. It should be noted that a 0% (W/V) artificial collagen aqueous solution was used as a control.
(§4) After the completion of the above-mentioned cultivation, the cartilage cells were collected, and RNA extraction was performed by using RNeasy (registered trademark) Mini Kit (QIAGEN). A reverse transcription reaction was performed by using QuantiTect (registered trademark) Reverse Transcription Kit (QIAGEN). To be more specific, Real-time PCR was performed by the following method.
(§5) The model used for Real-time PCR was ABI PRISM 7000 (Applied Biosystems), and the reagents used were Real-time PCR Master Mix (TOYOBO) and Pre-Developed TaqMan & reg; Assay Reagents Eukaryotic 18S rRNA (Applied Biosystems), TaqMan & reg; Probe kit (Applied Biosystems).
(§6) At 50° C. for 2 minutes, at 95° C. for 10 minutes (at 95° C. for 15 seconds, at 60° C. for 1 minute)×40 cycles.

cartilage defect model = experiment: Cartilage regeneration by intraarticular administration in cartilage defect model (modified ICRS score, Safranin-0 staining, type 2 collagen immunostaining); assay type: in vivo, New Zealand white domestic rabbits; details: for macroscopic observation of knee joints: collected Week 7; for Safranin-0-stained area ratio compared to control group / Safranin-0 stained area compared to control group / type 2 collagen antibody-immunostained area compared to control group / type 2 collagen antibody-immunostained area ratio compared to control group: intraarticular
Description: A cartilage defect with a diameter of 5 mm was made on the patellofemoral joint of each of 18 knees of 9 New Zealand white domestic rabbits (22 week-old, 3.4 to 3.8 kg) after anesthesia, and further, a wound was sutured to prepare a cartilage defect model (Week 0). The 18 knees were divided into 3 groups, and on Week 1, Week 3, and Week 5, physiological saline was administered for a control group, and an intraarticular injection (0.1 ml/kg) was performed for an artificial collagen aqueous solution administration group. After that, knee joints were collected on Week 7. The ICRS score in Table 4 below is an evaluation method generally used when cartilage grafting to a cartilage defect is performed. The inventors of the present invention adopted, as an evaluation method in the case of administering a medicament without performing cartilage grafting, a modified ICRS score, which is an evaluation method involving using two items of “Degree of defect repair” and “Macroscopic appearance” and performing evaluation with a total score of 0 to 8. […] As recognized from the result of modified ICRS score described in FIG. 12, cartilage regeneration could be achieved by the intraarticular administration of the artificial collagen aqueous solution as the substrate for cartilage cultivation of the present invention. It should be noted that the results with a modified ICRS score are expressed as an average of scores of 6 knees for the control group, an average of 6 knees for the 0.1% (W/V) group, and an average of 6 knees for the 0.5% (W/V) group. In addition, a Mann-Whitney U test was used for statistics. […] The stained areas of the 0.1% (W/V) artificial collagen administration group and the 0.5% (W/V) artificial collagen administration group were larger compared to the stained area of the control group. In particular, a proteoglycan was present in a large amount. In addition, the stained area ratios of the 0.1% (W/V) artificial collagen administration group and the 0.5% (W/V) artificial collagen administration group were larger compared to the stained area ratio of the control group. […] The stained areas of the 0.1% (W/V) artificial collagen administration group and the 0.5% (W/V) artificial collagen administration group were larger compared to the stained area of the control group. In addition, the stained area ratios of the 0.1% (W/V) artificial collagen administration group and the 0.5% (W/V) artificial collagen administration group were larger compared to the stained area ratio of the control group.

type 2 collagen mRNA = experiment: Type 2 collagen mRNA amount in cartilage cells by addition of artificial collagen aqueous solution (real-time PCR); assay type: cell-based, New Zealand white rabbits; details: relative to 0% defined as 1
Description: as §1, §2, §3, §4, §5, §6

cartilage cells = experiment: Proteoglycan production ability of cartilage cells (Na2 35SO4 incorporation) by addition of artificial collagen aqueous solution; assay type: cell-based, New Zealand white rabbits; details: 7 days, vs 0% control
Description: as §1
as §2, with “and” for “and then”, “6-well” for “12-well”, “1.5×10^6 cells/well” for “3×10^5 cells/well,”, “cultivated” for “cultivation was started”
At 24 hours after the start of the cultivation, a 1% (W/V) artificial collagen aqueous solution was diluted with a cultivation medium to prepare 0.10, 0.20, 0.30, 0.40, and 0.50% (W/V) artificial collagen aqueous solutions. The artificial collagen aqueous solutions were allowed to act on the cells for an additional 7 days, and further supplemented with 10 μCi/ml Na2^35SO4 to perform cultivation for the last 24 hours. A medium exchange was performed once every 3 days. It should be noted that a 0% (W/V) artificial collagen aqueous solution was used as a control.
After the completion of the above-mentioned cultivation, the cells were washed with a fresh cultivation medium, and a lysis buffer (4 M GuHCl, 0.05 M NaAC, pH 6.0) supplemented with protease inhibitors (0.1 M 6-aminohexanoic acid, 0.005 M benzamidine hydrochloride, 0.01 M Nae EDTA, 0.01 M N-ethylmaleimide, and 0.001 M phenylmethyl sulfonyl fluoride) was added into each well. The cells were extracted at 4° C. for 4 hours, and centrifuged at 15000 rpm at 4° C. for 20 minutes.
The cells were eluted with an elution buffer (4 M GuHCl, 0.05 M Na acetate, 0.1 M Na sulfate, and 0.5% Triton X-10 (pH 7.5)) by using a PD-10 pre-packed column (GE Healthcare Bio-Sciences Ltd.) to fractionate samples. To each of the fractionated samples, ethanol and a scintillator were added and mixed, and the radioactivity content (cpm) was measured with a liquid scintillation counter. Further, the DNA amount of each of the samples used in this case was measured with a Hoechst 33258 dye to determine a DNA value expressed as cpm/mg.

## Poly(Tripeptide-6) [artificial collagen aqueous solution]
Aggrecan mRNA; Day 4, the respective concentrations (0.10 to 0.50% (W/V))
  aggrecan mRNA amount: no significant change
Aggrecan mRNA; Day 7, the respective concentrations (0.10 to 0.50% (W/V))
  aggrecan mRNA amount: no significant change
Aggrecan mRNA; Day 21, 0.20% (W/V)
  aggrecan mRNA amount: significantly lowered
Aggrecan mRNA; Day 21, 0.30% (W/V)
  aggrecan mRNA amount: significantly lowered
Aggrecan mRNA; Day 21, 0.40% (W/V)
  aggrecan mRNA amount: significantly lowered
Aggrecan mRNA; Day 21, 0.50% (W/V)
  aggrecan mRNA amount: significantly lowered
Cartilage defect model; 0.1% (W/V), intraarticular 0.1 ml/kg on Week 1, 3, 5, Week 7, Mann-Whitney U test
  modified ICRS score vs control group: significant difference
Cartilage defect model; 0.1% (W/V), intraarticular 0.1 ml/kg on Week 1, 3, 5
  macroscopic observation of knee joints: many knee joints have smooth surfaces
Cartilage defect model; 0.1% (W/V), Week 7
  Safranin-0-stained area ratio compared to control group: larger
  Safranin-0 stained area compared to control group: larger
  type 2 collagen antibody-immunostained area compared to control group: larger
  type 2 collagen antibody-immunostained area ratio compared to control group: larger
Cartilage defect model; 0.5% (W/V), intraarticular 0.1 ml/kg on Week 1, 3, 5
  macroscopic observation of knee joints: many sparse fissures
Cartilage defect model; 0.5% (W/V), Week 7
  Safranin-0-stained area ratio compared to control group: larger
  Safranin-0 stained area compared to control group: larger
  type 2 collagen antibody-immunostained area compared to control group: larger
  type 2 collagen antibody-immunostained area ratio compared to control group: larger
Type 2 collagen mRNA; Day 4, 0.10% (W/V)
  type 2 collagen mRNA expression: significantly enhanced
Type 2 collagen mRNA; Day 7, 0.40% (W/V)
  type 2 collagen mRNA expression: lowered
Type 2 collagen mRNA; Day 7, 0.50% (W/V)
  type 2 collagen mRNA expression: lowered
Type 2 collagen mRNA; Day 21, 0.40% (W/V)
  type 2 collagen mRNA expression: lowered
Type 2 collagen mRNA; Day 21, 0.50% (W/V)
  type 2 collagen mRNA expression: lowered
Cartilage cells; 0.10% (W/V)
  proteoglycan production: significantly enhanced
Cartilage cells; 0.20% (W/V)
  proteoglycan production: significantly enhanced
Cartilage cells; 0.30% (W/V)
  proteoglycan production: significantly enhanced
Cartilage cells; 0.40% (W/V)
  proteoglycan production: significantly enhanced
Cartilage cells; 0.50% (W/V)
  proteoglycan production: significantly enhanced
